Results from the NIST ThermoML archive (doi:10.1021/je300633e).
Numbers after ± are expanded uncertainties.

Key:
[1] = refractive index (Na D-line) (dimensionless); mn = molality of the nth substance listed, in mol/kg; conditions: 298.15 K, 101 kPa, Liquid, Standard Abbe refractometry
[2] = mn = molality of the nth substance listed, in mol/kg; conditions: 298.15 K, 101 kPa, Liquid, Vibrating tube method

refractive index ([1]; m1 = 0.1) | refractive index ([1]; m1 = 0.2) | refractive index ([1]; m1 = 0.3) | refractive index ([1]; m1 = 0.5) | refractive index ([1]; m1 = 0.7) | refractive index ([1]; m1 = 0.9) | mass density ([2]; m1 = 0.1) [kg/m3] | mass density ([2]; m1 = 0.2) [kg/m3] | mass density ([2]; m1 = 0.3) [kg/m3] | mass density ([2]; m1 = 0.5) [kg/m3] | mass density ([2]; m1 = 0.7) [kg/m3] | mass density ([2]; m1 = 0.9) [kg/m3] | refractive index ([1]; m1 = 0.15) | refractive index ([1]; m1 = 0.25) | refractive index ([1]; m1 = 0.35) | refractive index ([1]; m1 = 0.4) | mass density ([2]; m1 = 0.15) [kg/m3] | mass density ([2]; m1 = 0.25) [kg/m3] | mass density ([2]; m1 = 0.35) [kg/m3] | mass density ([2]; m1 = 0.4) [kg/m3] | Structure (SMILES)
1.3349 ± 0.0009 | 1.3367 ± 0.0009 | 1.3398 ± 0.0009 | 1.344 ± 0.0009 | 1.349 ± 0.0009 | 1.3532 ± 0.0009 | 1003.27 ± 1 | 1009.2 ± 1 | 1015.29 ± 1 | 1026.51 ± 1 | 1037.43 ± 1 | 1047.8 ± 1 | – | – | – | – | – | – | – | – | OC[C@@H](O)[C@@H](O)[C@H](O)[C@H](O)CO [D-mannitol] + O
1.3341 ± 0.0009 | 1.3361 ± 0.0009 | 1.3382 ± 0.0009 | 1.3423 ± 0.0009 | 1.346 ± 0.0009 | 1.3494 ± 0.0009 | 1002 ± 1.1 | 1006.92 ± 1.1 | 1011.76 ± 1.1 | 1020.96 ± 1.1 | 1029.87 ± 1.1 | 1038.33 ± 1.1 | – | – | – | – | – | – | – | – | OC[C@@H](O)[C@H](O)[C@@H](O)CO [xylitol] + O
1.3348 ± 0.0009 | 1.3382 ± 0.0009 | 1.3409 ± 0.0009 | – | – | – | 997.981 ± 1.1 | 998.931 ± 1.1 | 999.901 ± 1.1 | – | – | – | 1.3363 ± 0.0009 | 1.3393 ± 0.0009 | 1.3419 ± 0.0009 | 1.3431 ± 0.0009 | 998.443 ± 1.1 | 999.413 ± 1.1 | 1000.37 ± 1.1 | 1000.88 ± 1.1 | CC(=O)NCCCCCCNC(C)=O [N,N'-diacetyl-1,6-hexanediamine] + O
